# Measured values from ChEMBL document CHEMBL1127525, “Synthesis and antitumor activities of novel 6-5 fused ring heterocycle antifolates: N-[4-[omega-(2-amino-4-substituted-6,7-dihydrocyclopenta [d]pyrimidin-5-yl)alkyl]benzoyl]-L-glutamic acids” (J Med Chem, 1994).
# Assays:
# [1] = system: Mus musculus; assay: Compound was evaluated for the life span assay against P388 Leukemia in mice (Controls died in an average of 9.8 days) at 0.78 (mg/kg) dose; format: functional
# [2] = system: Mus musculus; assay: Compound was evaluated for the life span assay and the activity against P388 Leukemia in mice (Controls died in an average of 9.8 days) at 3.13 (mg/kg) dose; format: functional
# [3] = system: Mus musculus; assay: Compound was evaluated for the life span assay against P388 Leukemia in mice (Controls died in an average of 9.8 days) at […] (mg/kg) dose; format: functional
# [4] = system: Mus musculus; assay: Compound was evaluated for the activity against Colon 26 Mouse colorectal carcinoma in mice by tumor weight assay at 10 (mg/kg) dose; format: functional
# [5] = system: Mus musculus; assay: Compound was evaluated for the activity against LC-6 Non-Small cell lung carcinoma in mice by tumor weight assay at 40 (mg/kg) dose; format: functional
# [6] = system: Mus musculus; assay: Compound was evaluated for the activity against LC-6 Non-Small cell lung carcinoma in mice by tumor weight assay at 20 (mg/kg) dose; format: functional
# [7] = system: P388; assay: Inhibitory concentration of compound was tested against P388 tumor growth cell line; format: functional, cell-based; conditions: Mus musculus
# [8] = system: Colon 26; assay: Inhibitory concentration of compound was tested against Colon 26 Mouse Colorectal Carcinoma on 4 hour exposure; format: functional, cell-based; conditions: Colon 26, 4 h
# [9] = system: P388; assay: Inhibitory concentration of compound was tested against P388:Methotrexate resistant cells tumor growth cell line; format: functional, cell-based; conditions: Mus musculus
# [10] = system: KB; assay: Inhibitory concentration of compound was tested against KB tumor growth cell line; format: functional, cell-based; conditions: Homo sapiens
# [11] = system: Mus musculus; assay: Compound was evaluated for the activity against LC-6 Non-Small cell lung carcinoma in mice by tumor weight assay at 10 (mg/kg) dose; format: functional
# [12] = system: Mus musculus; assay: Compound was evaluated for the activity against Colon 26 Mouse colorectal carcinoma in mice by tumor weight assay at 20 (mg/kg) dose; format: functional
# [13] = species: Mus musculus; assay: (§1) Inhibitory concentration of compound was tested against Colon 26 tumor growth cell line; format: functional
# [14] = system: Mus musculus; assay: Compound was evaluated for the activity against Colon 26 Mouse colorectal carcinoma in mice by tumor weight assay at 40 (mg/kg) dose
# [15] = system: P388; assay: inhibitory concentration of compound was tested against P388:Methotrexate resistant cells tumor growth cell line; format: functional, cell-based; conditions: Mus musculus
# [16] = target: T1, Dihydrofolate reductase (Mus musculus, UniProt P00375); assay: Compound was tested for the inhibition of dihydrofolate reductase in P388 cells; format: cell-based
# T1 sequence (P00375 whole entry): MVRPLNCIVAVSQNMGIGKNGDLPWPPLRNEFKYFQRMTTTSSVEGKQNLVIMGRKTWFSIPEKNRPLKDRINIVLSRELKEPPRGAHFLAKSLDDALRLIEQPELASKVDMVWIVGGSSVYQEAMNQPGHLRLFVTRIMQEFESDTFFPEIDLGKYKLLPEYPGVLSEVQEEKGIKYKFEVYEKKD
# [17] = system: P388 (Mus musculus); assay: Inhibitory concentration of compound was tested against P388 tumor growth cell line
# [18] = system: Colon 26; assay: as §1; format: functional, cell-based; conditions: Mus musculus
# [19] = system: MC-38; assay: Inhibitory concentration of compound was tested against Colon 38 tumor growth cell line; format: functional, cell-based; conditions: Mus musculus
# [20] = target: T1, Dihydrofolate reductase; assay: Binding affinity against dihydrofolate reductase
# [21] = target: T2, Thymidylate synthase (Lactobacillus casei, UniProt P00469); assay: Binding affinity against TS
# T2 sequence (P00469 whole entry): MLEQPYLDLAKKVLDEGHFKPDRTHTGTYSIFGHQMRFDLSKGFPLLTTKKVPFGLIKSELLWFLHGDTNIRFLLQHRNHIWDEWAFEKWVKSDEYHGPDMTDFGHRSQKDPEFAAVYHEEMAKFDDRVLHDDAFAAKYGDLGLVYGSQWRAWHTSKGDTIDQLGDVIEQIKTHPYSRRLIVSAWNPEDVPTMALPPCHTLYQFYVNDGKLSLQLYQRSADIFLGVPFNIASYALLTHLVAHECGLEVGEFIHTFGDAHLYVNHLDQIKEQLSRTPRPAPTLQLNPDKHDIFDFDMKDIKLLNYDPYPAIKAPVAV
# [22] = system: Mus musculus; assay: Compound was evaluated for the life span assay against P388 Leukemia in mice (Controls died in an average of 9.8 days) at 0.39 (mg/kg) dose; format: functional
# [23] = system: Mus musculus; assay: Compound was evaluated for the life span assay against P388 Leukemia in mice (Controls died in an average of 9.8 days) at 1.56 (mg/kg) dose; format: functional
# [24] = system: Mus musculus; assay: Compound was evaluated for the activity against LC-6 Non-Small cell lung carcinoma in mice by tumor weight assay at 10 (mg/kg) dose in experiment-1; format: functional
# [25] = system: Mus musculus; assay: Compound was evaluated for the activity against LC-6 Non-Small cell lung carcinoma in mice by tumor weight assay at 20 (mg/kg) dose experiment-2; format: functional
# [26] = system: Mus musculus; assay: Compound was evaluated for the life span assay against P388 Leukemia in mice (Controls died in an average of 9.8 days) at 0.2 (mg/kg) dose; format: functional
# [27] = system: Mus musculus; assay: Compound was evaluated for the activity against LC-6 Non-Small cell lung carcinoma in mice by tumor weight assay at 20 (mg/kg) dose experiment-1; format: functional
# [28] = system: Mus musculus; assay: Compound was evaluated for the life span assay against P388 Leukemia in mice (Controls died in an average of 9.8 days) at 12.5 (mg/kg) dose; format: functional
# [29] = system: Mus musculus; assay: Compound was evaluated for the activity against LC-6 Non-Small cell lung carcinoma in mice by tumor weight assay at 40 (mg/kg) dose experiment-2; format: functional
# [30] = system: Mus musculus; assay: Compound was evaluated for the life span assay against P388 Leukemia in mice (Controls died in an average of 9.8 days) at 3.13 (mg/kg) dose; format: functional
# [31] = system: Mus musculus; assay: Compound was evaluated for the activity against LC-6 Non-Small cell lung carcinoma in mice by tumor weight assay at 10 (mg/kg) dose experiment-2; format: functional
# [32] = system: Mus musculus; assay: Compound was evaluated for the activity against Colon 26 Mouse colorectal carcinoma in mice by tumor weight assay at 2.5 (mg/kg) dose; format: functional
# [33] = system: Mus musculus; assay: Compound was evaluated for the activity against Colon 26 Mouse colorectal carcinoma in mice by tumor weight assay at 5 (mg/kg) dose; format: functional
# [34] = system: Mus musculus; assay: Compound was evaluated for the life span assay against P388 Leukemia in mice (Controls died in an average of 9.8 days) at 50 (mg/kg) dose; format: functional
# [35] = system: Mus musculus; assay: Compound was evaluated for the life span assay against P388 Leukemia in mice (Controls died in an average of 9.8 days) at 0.05 (mg/kg) dose; format: functional
# [36] = system: Mus musculus; assay: Compound was evaluated for the life span assay against P388 Leukemia in mice (Controls died in an average of 9.8 days) at 0.1 (mg/kg) dose; format: functional
# [37] = system: Mus musculus; assay: Compound was evaluated for the activity against LC-6 Non-Small cell lung carcinoma in mice by tumor weight assay at 2.5 (mg/kg) dose experiment-2; format: functional
# [38] = system: Mus musculus; assay: Compound was evaluated for the activity against LC-6 Non-Small cell lung carcinoma in mice by tumor weight assay at 5 (mg/kg) dose experiment-1; format: functional
# [39] = system: Mus musculus; assay: Compound was evaluated for the activity against Colon 26 Mouse colorectal carcinoma in mice by tumor weight assay at 1.25 (mg/kg) dose; format: functional
# [40] = system: Mus musculus; assay: Compound was evaluated for the activity against Colon 26 Mouse colorectal carcinoma in mice by tumor weight assay at 0.3 (mg/kg) dose; format: functional
# [41] = system: Mus musculus; assay: Compound was evaluated for the activity against LC-6 Non-Small cell lung carcinoma in mice by tumor weight assay at 5 (mg/kg) dose experiment-2; format: functional
# [42] = system: Mus musculus; assay: Compound was evaluated for the activity against Colon 26 Mouse colorectal carcinoma in mice by tumor weight assay at 0.6 (mg/kg) dose; format: functional
# [43] = system: Mus musculus; assay: Compound was evaluated for the activity against LC-6 Non-Small cell lung carcinoma in mice by tumor weight assay at 2.5 (mg/kg) dose experiment-1; format: functional
# [44] = system: Mus musculus; assay: Compound was evaluated for the activity against LC-6 Non-Small cell lung carcinoma in mice by tumor weight assay at 1.3 (mg/kg) dose experiment-2; format: functional
smiles,measurement,setting,value
CN(Cc1cnc2nc(N)nc(N)c2n1)c1ccc(C(=O)N[C@@H](CCC(=O)O)C(=O)O)cc1 [METHOTREXATE],T/C,[1],122%
same,T/C,[2],149%
same,T/C,[3],168%
same,T/C,[4],71%
same,T/C,[5],35%
same,T/C,[6],53%
same,IC50,[7],0.023 µM
same,IC50,[8],> 40 µM
same,IC50,[9],0.223 µM
same,IC50,[10],0.019 µM
same,T/C,[11],100%
same,T/C,[12],65%
same,IC50,[13],0.031 µM
same,T/C,[14],31%
Nc1nc2c(c(=O)[nH]1)C(CCc1ccc(C(=O)NC(CCC(=O)O)C(=O)O)cc1)CC2 (stereo unspecified),IC50,[15],> 1 µM
same,IC50,[16],0.0021 µM
same,IC50,[17],> 1 µM
same,IC50,[18],> 1 µM
same,IC50,[10],> 1 µM
same,IC50,[19],> 1 µM
Nc1nc2[nH]cc(CCc3ccc(C(=O)N[C@@H](CCC(=O)O)C(=O)O)cc3)c2c(=O)[nH]1 [PEMETREXED],Ki,[20],0.56 µM
same,Ki,[21],0.55 µM
CCC(Cc1cnc2nc(N)nc(N)c2n1)c1ccc(C(=O)N[C@@H](CCC(=O)O)C(=O)O)cc1 (stereo partly specified) [EDATREXATE],T/C,[22],135%
same,T/C,[23],155%
same,T/C,[1],136%
same,T/C,[3],165%
same,T/C,[24],63%
same,T/C,[25],1%
same,T/C,[4],70%
same,IC50,[18],0.0048 µM
same,T/C,[26],114%
same,T/C,[27],38%
same,T/C,[28],157%
same,T/C,[29],1%
same,IC50,[7],0.0043 µM
same,IC50,[8],> 40 µM
same,IC50,[9],0.044 µM
same,T/C,[30],162%
same,IC50,[10],0.003 µM
same,T/C,[12],64%
same,T/C,[31],22%
same,IC50,[19],0.011 µM
Nc1nc(N)c2c(n1)CCC2CCc1ccc(C(=O)NC(CCC(=O)O)C(=O)O)cc1 (stereo unspecified),T/C,[1],129%
same,IC50,[16],0.072 µM
same,T/C,[4],41%
same,T/C,[32],95%
same,T/C,[33],62%
same,IC50,[18],0.008 µM
same,T/C,[28],147%
same,IC50,[7],0.0071 µM
same,IC50,[8],0.19 µM
same,IC50,[9],0.064 µM
same,T/C,[30],135%
same,IC50,[10],0.0041 µM
same,T/C,[34],148%
same,IC50,[19],0.01 µM
Nc1nc(O)c2c(n1)CCC2CCCc1ccc(C(=O)NC(CCC(=O)O)C(=O)O)cc1 (stereo unspecified),IC50,[17],> 1 µM
same,IC50,[18],> 1 µM
same,IC50,[9],> 1 µM
same,IC50,[10],> 1 µM
Nc1nc(N)c2c(n1)CCC2CCCc1ccc(C(=O)NC(CCC(=O)O)C(=O)O)cc1 (stereo unspecified),T/C,[35],120%
same,T/C,[22],158%
same,T/C,[36],130%
same,T/C,[37],9%
same,T/C,[23],180%
same,T/C,[1],170%
same,T/C,[32],31%
same,IC50,[18],0.003 µM
same,T/C,[26],147%
same,T/C,[38],23%
same,T/C,[39],38%
same,T/C,[40],71%
same,T/C,[41],1%
same,T/C,[42],49%
same,IC50,[8],1.7 µM
same,IC50,[9],0.019 µM
same,T/C,[30],138%
same,IC50,[10],0.0017 µM
same,T/C,[43],6%
same,T/C,[44],4%
same,IC50,[19],0.0051 µM
